Measured values from patent publication US10617654B2, “Use of fenoterol and fenoterol analogues in the treatment of glioblastomas and astrocytomas” (priority 2010, dated 2020).
Values joined by “and” are separate entries in the source; they are usually repeats but may differ in a detail not shown here. Equal values may be shown once. Read-outs that look alike come from different tables or passages of the source.

Legend:
β2-AR [1] = target: T1, β2-AR (Homo sapiens (Human), UniProt P07550); conditions: previously reported; cited from earlier work
1321N1 cells [2] = assay: Inhibition of mitogenesis, [3H]-thymidine incorporation in 1321N1 cells; format: cell-based, human
[3] = for Individual plasma concentration: individual rat; for A (zero time intercept, alpha phase) / AUC / B (zero time intercept, beta phase) / Cl / T1/2 (K10) / Vss: 5 mg/kg intravenous, two-compartment open model
Description: Dose calculations (mg/kg) were based on the individual body weight measured on the day of treatment. Study duration for pharmacokinetic studies was 6 hours. […] Urine was collected for 0-6 hours and 6 to 24 hours from 3 rats in each treatment group.
In the two-compartment model, the drug distributes into two compartments, the central compartment and the tissue, or peripheral compartment. The central compartment represents the blood, extracellular fluid, and highly perfused tissues. The drug distributes rapidly and uniformly in the central compartment. A second compartment, known as the tissue or peripheral compartment, contains tissues in which the drug equilibrates more slowly. Drug transfer between the two compartments is assumed to take place by first-order processes.
The following abbreviations are utilized in Table 4 below: alpha—macro rate constant associated with the distribution phase; beta—macro rate constant associated with the elimination phase; A, B—zero time intercept associated with the alpha phase and beta phase, respectively; AUC—area under the curve; T1/2 (K10)—half-life associated with the rate constant K10; K10—elimination rate—rate at which the drug leaves the system from the central compartment; K12—rate at which drug enters tissue compartment from the central compartment; K21—rate at which drug enters central compartment from tissue compartment; V1—volume of distribution of the central compartment; V2—volume of distribution of the tissue compartment; Vss—volume of distribution at steady state; and Cl—clearance.

1321N1 cells [4] = assay: Cell cycle distribution by flow cytometry in 1321N1 cells; format: cell-based, human
Excerpt: Untreated cells were used as controls.

[5] = test system: p27, phospho-Akt, cyclin D1, cyclin A, ERK1/2 in 1321N1 cells; assay: Western blot analysis of G1 arrest proteins in 1321N1 cells; format: cell-based, human
Excerpt: The ECL Plus Western Blotting Detection System of Amersham Biosciences (Piscataway, N.J.) and the procedure recommended by the manufacturer were used for the detection of antigens. Protein bands were quantified by analyzing the images obtained using an Alphaimager™ S-3400 (Alpha Innotech Corp., San Leandro, Calif.).

rat cardiomyocyte = assay: Rat cardiomyocyte contractility model; format: cell-based
β2-AR [6] = target: T1, β2-AR; format: cell-based; conditions: 1321N1 cells, basal below 0.5 nmol/mg protein
Description: HEK-β2-AR, 1321N1 or U87MG cells were plated in 96-well plates. When the cells reached confluence, the medium was removed and each well rinsed with 0.1 mL of Krebs-HEPES buffer (130 mM NaCl, 4.8 mM KCl, 1.2 mM KH2PO4, 1.3 mM CaCl2, 1.2 mM MgSO4, 25 mM HEPES, and 10 mM glucose, pH 7.3). The plates were preincubated for 10 minutes at room temperature with buffer alone; then test compound diluted in buffer was added to the wells for quadruplicate determinations. The plates were incubated for an additional 10 minutes with the test compound. After incubation, the medium was removed and 0.1 mL of 0.5 M formic acid was added. After a minimum of 1 hour, the supernatant was removed and lyophilized. cAMP was quantitated using the protein kinase binding assay of Gilman. The amount of protein per well was determined using the BCA protein determination kit (Thermo Scientific Pierce, Rockford, Ill.) and was used to calculate the amount of cAMP/mg/well.

[7] = Brain and plasma analysis of [3H]-(R,R)-methoxyfenoterol after IV administration; format: in vivo, male Sprague-Dawley rats; conditions: 5 mg/kg IV; for Brain, Mean / Percent of Dose in Brain, Mean / Plasma, Mean: three rats; for Brain, Individual / Percent of Dose in Brain, Individual / Plasma, Individual: individual rat
Description: An overview of the research study design for evaluating the brain-to-plasma distribution of [^3H]
(specific activity 57 Ci/mmol); vehicle was sterile saline, 0.9% sodium chloride, USP. Dose formulations were prepared on the day of the study. The amount of radioactivity in the dose formulation was determined by liquid scintillation. The study lasted for an hour and radioactivity levels in plasma and brain tissue were evaluated at the conclusion of the study. Approximately 5 mls of whole blood was collected. Blood samples were collected via cardiac puncture, transferred into a tube containing K3EDTA as the anticoagulant and kept on wet ice until processed to plasma. To generate plasma, samples were centrifuged within 15 minutes of collection at 2,500 RPM for 15 minutes at room temperature. Plasma was divided equally into three labeled cryovials and stored on ample dry ice until transferred to a freezer set at ≤−20° C. for storage until analysis. Duplicate aliquots were weighed and then combined with scintillation cocktail. The [^3H] radioactivity was determined on a liquid scintillation counter. Brain samples were snap frozen in liquid nitrogen and stored at ≤−70° C. until analysis. Whole brain tissue was homogenized and the weight of the homogenate was determined. Duplicate aliquots from the homogenate were weighed, solubilized and then combined with scintillation cocktail. The [^3H] radioactivity was determined on a liquid scintillation counter.

[8] = Homo sapiens, 1321-N1, read-out: Mitogenesis Inhibition IC50
[9] = 5 min, listed as [^3H]—(R,R)-methoxyfenoterol
[10] = 60 min, listed as [^3H]—(R,R)-methoxyfenoterol

T1 sequence (P07550 whole entry): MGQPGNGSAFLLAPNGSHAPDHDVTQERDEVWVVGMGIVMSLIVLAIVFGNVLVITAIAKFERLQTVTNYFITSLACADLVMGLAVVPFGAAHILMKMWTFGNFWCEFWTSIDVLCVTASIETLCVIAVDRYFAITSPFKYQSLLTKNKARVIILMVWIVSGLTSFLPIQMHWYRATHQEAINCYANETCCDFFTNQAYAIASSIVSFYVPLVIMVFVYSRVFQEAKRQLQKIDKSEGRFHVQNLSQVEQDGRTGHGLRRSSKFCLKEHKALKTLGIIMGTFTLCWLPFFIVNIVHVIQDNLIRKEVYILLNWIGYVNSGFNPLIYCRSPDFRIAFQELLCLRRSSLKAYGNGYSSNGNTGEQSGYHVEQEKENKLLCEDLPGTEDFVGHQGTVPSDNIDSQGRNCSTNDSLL

CC(C)NCC(O)c1ccc(O)c2[nH]c(=O)ccc12 (centres unmarked) [Compound 50]
Ki (β2-AR [1]): 170 nM | Ki β1/Ki β2 (β2-AR [1]): 1.7

NCC(O)c1ccc(O)c2[nH]c(=O)ccc12 (centres unmarked) [Compound 51]
Ki (β2-AR [1]): 6300 nM | Ki β1/Ki β2 (β2-AR [1]): 1.3

Cc1ccc(OCC(O)C(C)NC(C)C)c2c1CCC2 (centres unmarked) [ICI 118-551, reference compound]
pA2 (1321N1 cells [2]; competitive inhibition of inhibitory effect of (R,R)-fenoterol, 1321N1 cells): 8.9 | slope (pA2 analysis) (1321N1 cells [2]; inhibition of effect of (R,R)-fenoterol, 1321N1 cells): −1.3±0.3

C[C@H](Cc1ccc(O)cc1)NC[C@H](O)c1cc(O)cc(O)c1 [(R,R)-1, (R,R)-(−)-Fenoterol]
Individual plasma concentration ([3]; 5 mg/kg IV, 15 min): 0.36 µg/mL | Individual plasma concentration ([3]; 5 mg/kg IV, 30 min): 0.17 µg/mL and 0.50 µg/mL | Individual plasma concentration ([3]; 5 mg/kg IV, 60 min): 0.05 µg/mL | Individual plasma concentration ([3]; 5 mg/kg IV, 120 min): 0.03 µg/mL and 0.01 µg/mL | Individual plasma concentration ([3]; 5 mg/kg IV, 300 min): 0.005 µg/mL | Individual plasma concentration ([3]; 5 mg/kg IV, 360 min): 0.08 µg/mL and 0.03 µg/mL | Plasma concentration, Average ([3]; rats, 5 mg/kg IV, 15 min): 360 ng/mL | Plasma concentration, Average ([3]; rats, 5 mg/kg IV, 30 min): 340 ng/mL | Plasma concentration, Average ([3]; rats, 5 mg/kg IV, 60 min): 50 ng/mL | Plasma concentration, Average ([3]; rats, 5 mg/kg IV, 120 min): 20 ng/mL | Plasma concentration, Average ([3]; rats, 5 mg/kg IV, 240 min): 10 ng/mL | Plasma concentration, Average ([3]; rats, 5 mg/kg IV, 300 min): 5 ng/mL | Plasma concentration, Average ([3]; rats, 5 mg/kg IV, 360 min): 60 ng/mL | A (zero time intercept, alpha phase) ([3]; rats): 1.6300 µg/mL | AUC ([3]; rats): 29.6861 µg·min/mL | B (zero time intercept, beta phase) ([3]; rats): 0.0577 µg/mL | Cl ([3]; rats): 51.54 mL/min | T1/2 (K10) ([3]; rats): 12.19 min | Vss ([3]; rats): 1911.70 mL | lowest dose arresting the cell cycle (1321N1 cells [4]): 0.1 nM | phosphorylation of ERK1/2 [5]: only a modest effect | protein expression of cyclin A [5]: down-regulated | protein expression of cyclin D1 [5]: down-regulated | phosphorylation of Akt at Ser-473 ([5]; dose dependent, nanomolar concentrations): inhibited phosphorylation | protein levels of cyclin-dependent kinase inhibitor p27 ([5]; nanomolar concentrations): significantly increased

C[C@@H](Cc1ccc(O)cc1)NC[C@@H](O)c1cc(O)cc(O)c1 [(S,S)-1, (S,S)-(+)-Fenoterol]
EC50 (rat cardiomyocyte): 55000 nM

CC[C@H](Cc1ccc(O)cc1)NC[C@H](O)c1cc(O)cc(O)c1 [(R,R)-ethylfenoterol, (R,R)-(−)-ethylfenoterol]
EC50 (rat cardiomyocyte): 8550 nM | IC50 (1321N1 cells [2]; [8]): 1.44 nM

C=C[C@@]1(C)CC(=O)[C@]2(O)[C@@]3(C)[C@@H](O)CCC(C)(C)[C@@H]3[C@H](O)[C@H](OC(C)=O)[C@@]2(C)O1 [forskolin]
intracellular concentration of cAMP after treatment (β2-AR [6]): ~4 nmol/mg protein

COc1ccc(C[C@@H](NC[C@H](O)c2cc(O)cc(O)c2)C(C)C)cc1 [(R,R)-4-methoxy-isopropylfenoterol]
EC50 (rat cardiomyocyte): > 10000 nM | IC50 (1321N1 cells [2]; [3H]-thymidine incorporation, 1321N1 cells, mean ± SD, n = 4, read-out: Mitogenesis Inhibition IC50): 946 nM

C[C@@H](Cc1cccc2ccccc12)NC[C@H](O)c1cc(O)cc(O)c1.O=C(O)/C=C/C(=O)O [(R,S)-5, (R,S)-(−)-5-{1-hydroxy-2-[1-methyl-2-(1-naphthyl)ethylamino]ethyl}-1,3-benzenediol fumarate]
Individual plasma concentration ([3]; 5 mg/kg IV, 5 min, listed as (R,S)-naphthylfenoterol, fumarate): 2.52 µg/mL and 2.10 µg/mL | Individual plasma concentration ([3]; 5 mg/kg IV, 240 min, listed as (R,S)-naphthylfenoterol, fumarate): 0.11 ug/ml (3×) and 0.13 ug/ml (2×) | Individual plasma concentration ([3]; 5 mg/kg IV, 300 min, listed as (R,S)-naphthylfenoterol, fumarate): 0.10 ug/ml (2×) and 0.11 ug/ml (2×) and 0.12 ug/ml | systemic exposure (AUC) compared to (R,R)-fenoterol ([3]; rats, 5 mg/kg IV): significantly higher | Plasma concentration, Average ([3]; rats, 5 mg/kg IV, 5 min): 2110 ng/mL | Plasma concentration, Average ([3]; rats, 5 mg/kg IV, 15 min): 680 ng/mL | Plasma concentration, Average ([3]; rats, 5 mg/kg IV, 30 min): 430 ng/mL | Plasma concentration, Average ([3]; rats, 5 mg/kg IV, 60 min): 340 ng/mL | Plasma concentration, Average ([3]; rats, 5 mg/kg IV, 120 min): 240 ng/mL | Plasma concentration, Average ([3]; rats, 5 mg/kg IV, 240 min): 120 ng/mL | Plasma concentration, Average ([3]; rats, 5 mg/kg IV, 300 min): 110 ng/mL | Plasma concentration, Average ([3]; rats, 5 mg/kg IV, 360 min): 90 ng/mL | A (zero time intercept, alpha phase) ([3]; rats): 4.0365 µg/mL | AUC ([3]; rats): 116.88 µg·min/mL | B (zero time intercept, beta phase) ([3]; rats): 0.4372 µg/mL | Cl ([3]; rats): 12.66 mL/min | T1/2 (K10) ([3]; rats): 18.11 min | Vss ([3]; rats): 2203.75 mL

COc1ccc(C[C@@H](C)NC[C@H](O)c2cc(O)cc(O)c2)cc1.Cl [[^3H]-(R,R)-methoxyfenoterol]
Brain, Mean ([7]; 5 min): 0.92 μg-equiv/g | Percent of Dose in Brain, Mean ([7]; 5 min): 0.14% | Plasma, Mean ([7]; 5 min): 3.25 μg-equiv/ml | Brain, Mean [7, 9]: 0.92±0.10 μg-equiv/g | Plasma, Mean [7, 9]: 3.25±0.15 μg-equiv/ml | Brain, Mean ([7]; 15 min): 0.80 μg-equiv/g | Percent of Dose in Brain, Mean ([7]; 15 min): 0.12% | Plasma, Mean ([7]; 15 min): 1.79 μg-equiv/ml | Brain, Mean ([7]; 30 min): 0.72 μg-equiv/g | Percent of Dose in Brain, Mean ([7]; 30 min): 0.11% | Plasma, Mean ([7]; 30 min): 1.53 μg-equiv/ml | Brain, Mean ([7]; 60 min): 0.70 μg-equiv/g | Percent of Dose in Brain, Mean ([7]; 60 min): 0.11% | Plasma, Mean ([7]; 60 min): 1.24 μg-equiv/ml | Brain, Mean [7, 10]: 0.70±0.37 μg-equiv/g | Plasma, Mean [7, 10]: 1.24±0.43 μg-equiv/ml | percent dose found in the brain, any given animal ([7]; over 60 minutes): no more than 0.17% | decrease of plasma levels ([7]; from 5 minutes to 60 minutes): 62% | Brain, Individual ([7]; 5 min): 1.00 μg-equiv/g and 0.80 μg-equiv/g and 0.95 μg-equiv/g | Percent of Dose in Brain, Individual ([7]; 5 min): 0.15% (2×) and 0.12% | Plasma, Individual ([7]; 5 min): 3.30 μg-equiv/ml and 3.08 μg-equiv/ml and 3.37 μg-equiv/ml | Brain, Individual ([7]; 15 min): 0.99 μg-equiv/g and 0.36 μg-equiv/g and 1.06 μg-equiv/g | Percent of Dose in Brain, Individual ([7]; 15 min): 0.15% and 0.06% and 0.16% | Plasma, Individual ([7]; 15 min): 2.19 μg-equiv/ml and 0.89 μg-equiv/ml and 2.29 μg-equiv/ml | Brain, Individual ([7]; 30 min): 0.22 μg-equiv/g and 1.00 μg-equiv/g and 0.95 μg-equiv/g | Percent of Dose in Brain, Individual ([7]; 30 min): 0.03% and 0.15% (2×) | Plasma, Individual ([7]; 30 min): 0.63 μg-equiv/ml and 1.97 μg-equiv/ml and 2.00 μg-equiv/ml | Brain, Individual ([7]; 60 min): 0.44 μg-equiv/g and 0.53 μg-equiv/g and 1.12 μg-equiv/g | Percent of Dose in Brain, Individual ([7]; 60 min): 0.06% and 0.09% and 0.17% | Plasma, Individual ([7]; 60 min): 0.97 μg-equiv/ml and 1.01 μg-equiv/ml and 1.73 μg-equiv/ml

CC[C@@H](Cc1ccc(O)cc1)NC[C@H](O)c1cc(O)cc(O)c1 [(R,S)-ethylfenoterol, (R,S)-(−)-ethylfenoterol]
IC50 (1321N1 cells [2]; [8]): 17.9 ± 4.56 nM
